Patent US7981903B2, “2-[2-{phenylamino}-1H-pyrrolo[2,3-D]pyrimidin-4-yl)amino] benzamide derivatives as IGF-1R inhibitors for the treatment of cancer” (GlaxoSmithKline LLC, priority 2007, dated 2011)

Experiments:
ALK = ALK (Homo sapiens, UniProt Q9UM73); test: ALK enzyme assay (HTRF); assay type: biochemical; conditions: 0.25 nM ALK, 15.0 μM ATP, values given as pIC50 category
Summary of the method: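 Final compound range 0.00017 to 10 μM (twelve 1:3 dilutions). Kinase reaction with ATP and biotinylated synthetic peptide runs 120 min at 20° C, stopped with EDTA; phosphotyrosine detected by HTRF after 60 min. Inhibition referenced to DMSO (1%) and EDTA (0.1 M) controls, curve-fitted.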

human IR (hIR) = molecular target: T1, human IR (hIR) (Homo sapiens, UniProt P06213); test: TR-FRET kinase assay of purified hIR; assay type: biochemical; conditions: activated hIR 0.5 nM, 10 μM ATP, values given as pIC50 category
T1 construct: containing amino acid residues 979-1382 of human IR; made in house; host or cells: Sf9 cells (baculovirus), same process as hIGF1R
T1 sequence (P06213 979-1382): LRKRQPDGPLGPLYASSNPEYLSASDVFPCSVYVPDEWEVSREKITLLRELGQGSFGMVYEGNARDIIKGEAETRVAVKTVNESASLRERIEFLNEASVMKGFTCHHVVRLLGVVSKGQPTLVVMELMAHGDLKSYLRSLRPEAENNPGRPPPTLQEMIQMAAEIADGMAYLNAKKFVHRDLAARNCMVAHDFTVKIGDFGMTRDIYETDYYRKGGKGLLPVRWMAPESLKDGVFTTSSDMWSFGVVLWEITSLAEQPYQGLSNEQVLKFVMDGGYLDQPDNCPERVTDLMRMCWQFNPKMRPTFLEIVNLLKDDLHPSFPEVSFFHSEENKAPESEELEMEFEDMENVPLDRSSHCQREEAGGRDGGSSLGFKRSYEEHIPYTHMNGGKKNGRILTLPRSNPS

[1] = molecular target: T2, NIH-3T3 cells overexpressing human IGF-1R (Homo sapiens, UniProt P08069); test: IGF-1R cellular autophosphorylation (DELFIA); assay type: cell-based
T2 construct: expressed in transfected cells; host or cells: NIH-3T3 (mouse fibroblasts)
T2 sequence (P08069 31-1367): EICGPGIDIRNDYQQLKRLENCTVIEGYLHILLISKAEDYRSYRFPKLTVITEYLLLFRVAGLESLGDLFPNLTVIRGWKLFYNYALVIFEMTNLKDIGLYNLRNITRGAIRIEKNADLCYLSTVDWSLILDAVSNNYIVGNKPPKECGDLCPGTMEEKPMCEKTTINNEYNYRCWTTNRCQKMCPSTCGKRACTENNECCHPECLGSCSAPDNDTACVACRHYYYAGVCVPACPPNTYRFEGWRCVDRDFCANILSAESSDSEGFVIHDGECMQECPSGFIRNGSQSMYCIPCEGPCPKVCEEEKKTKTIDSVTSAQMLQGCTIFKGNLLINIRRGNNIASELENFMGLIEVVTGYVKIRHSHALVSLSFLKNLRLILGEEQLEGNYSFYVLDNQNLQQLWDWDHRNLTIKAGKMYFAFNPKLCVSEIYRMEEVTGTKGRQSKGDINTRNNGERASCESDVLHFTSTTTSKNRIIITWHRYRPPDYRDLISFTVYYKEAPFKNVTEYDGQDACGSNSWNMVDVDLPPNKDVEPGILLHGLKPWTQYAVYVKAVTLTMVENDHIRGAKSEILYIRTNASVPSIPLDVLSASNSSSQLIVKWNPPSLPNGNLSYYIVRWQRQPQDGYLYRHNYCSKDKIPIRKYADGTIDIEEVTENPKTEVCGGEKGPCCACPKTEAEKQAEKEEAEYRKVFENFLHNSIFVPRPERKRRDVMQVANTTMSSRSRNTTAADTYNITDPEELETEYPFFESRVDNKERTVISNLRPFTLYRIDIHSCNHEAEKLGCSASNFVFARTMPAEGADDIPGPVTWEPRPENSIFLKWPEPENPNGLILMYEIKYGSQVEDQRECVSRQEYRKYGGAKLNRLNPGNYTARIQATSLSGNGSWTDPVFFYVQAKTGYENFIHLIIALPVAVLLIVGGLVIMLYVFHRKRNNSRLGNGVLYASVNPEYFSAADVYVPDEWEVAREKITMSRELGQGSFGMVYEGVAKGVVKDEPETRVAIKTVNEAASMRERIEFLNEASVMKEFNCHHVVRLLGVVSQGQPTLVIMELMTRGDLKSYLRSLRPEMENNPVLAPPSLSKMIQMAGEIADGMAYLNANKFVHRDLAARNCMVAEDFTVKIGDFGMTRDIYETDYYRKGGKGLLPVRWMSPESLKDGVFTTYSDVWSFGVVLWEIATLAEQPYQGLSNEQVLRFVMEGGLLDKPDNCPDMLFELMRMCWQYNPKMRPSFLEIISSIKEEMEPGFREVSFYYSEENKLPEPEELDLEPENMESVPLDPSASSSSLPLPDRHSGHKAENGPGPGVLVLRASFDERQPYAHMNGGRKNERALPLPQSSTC
Summary of the method: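 Receptor autophosphorylation measured by DELFIA, capturing IGF-1R or IRβ and detecting with europium anti-pTyr, reported as percent of IGF-1- or insulin-stimulated signal. Compounds (30 uM to 1.5 nM) added 2 h before ligand, then 15 min stimulation (IGF-1 30 ng/ml or insulin 3 ug/ml).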

[2] = molecular target: T3, NIH-3T3 cells overexpressing human IR (Homo sapiens, UniProt P06213); test: IR cellular autophosphorylation (DELFIA); assay type: cell-based; conditions: 2 h compound, insulin 3 ug/ml for 15 minutes, IC50 category
T3 construct: expressed in transfected cells; host or cells: NIH-3T3 (mouse fibroblasts)
T3 sequence (P06213 28-1382): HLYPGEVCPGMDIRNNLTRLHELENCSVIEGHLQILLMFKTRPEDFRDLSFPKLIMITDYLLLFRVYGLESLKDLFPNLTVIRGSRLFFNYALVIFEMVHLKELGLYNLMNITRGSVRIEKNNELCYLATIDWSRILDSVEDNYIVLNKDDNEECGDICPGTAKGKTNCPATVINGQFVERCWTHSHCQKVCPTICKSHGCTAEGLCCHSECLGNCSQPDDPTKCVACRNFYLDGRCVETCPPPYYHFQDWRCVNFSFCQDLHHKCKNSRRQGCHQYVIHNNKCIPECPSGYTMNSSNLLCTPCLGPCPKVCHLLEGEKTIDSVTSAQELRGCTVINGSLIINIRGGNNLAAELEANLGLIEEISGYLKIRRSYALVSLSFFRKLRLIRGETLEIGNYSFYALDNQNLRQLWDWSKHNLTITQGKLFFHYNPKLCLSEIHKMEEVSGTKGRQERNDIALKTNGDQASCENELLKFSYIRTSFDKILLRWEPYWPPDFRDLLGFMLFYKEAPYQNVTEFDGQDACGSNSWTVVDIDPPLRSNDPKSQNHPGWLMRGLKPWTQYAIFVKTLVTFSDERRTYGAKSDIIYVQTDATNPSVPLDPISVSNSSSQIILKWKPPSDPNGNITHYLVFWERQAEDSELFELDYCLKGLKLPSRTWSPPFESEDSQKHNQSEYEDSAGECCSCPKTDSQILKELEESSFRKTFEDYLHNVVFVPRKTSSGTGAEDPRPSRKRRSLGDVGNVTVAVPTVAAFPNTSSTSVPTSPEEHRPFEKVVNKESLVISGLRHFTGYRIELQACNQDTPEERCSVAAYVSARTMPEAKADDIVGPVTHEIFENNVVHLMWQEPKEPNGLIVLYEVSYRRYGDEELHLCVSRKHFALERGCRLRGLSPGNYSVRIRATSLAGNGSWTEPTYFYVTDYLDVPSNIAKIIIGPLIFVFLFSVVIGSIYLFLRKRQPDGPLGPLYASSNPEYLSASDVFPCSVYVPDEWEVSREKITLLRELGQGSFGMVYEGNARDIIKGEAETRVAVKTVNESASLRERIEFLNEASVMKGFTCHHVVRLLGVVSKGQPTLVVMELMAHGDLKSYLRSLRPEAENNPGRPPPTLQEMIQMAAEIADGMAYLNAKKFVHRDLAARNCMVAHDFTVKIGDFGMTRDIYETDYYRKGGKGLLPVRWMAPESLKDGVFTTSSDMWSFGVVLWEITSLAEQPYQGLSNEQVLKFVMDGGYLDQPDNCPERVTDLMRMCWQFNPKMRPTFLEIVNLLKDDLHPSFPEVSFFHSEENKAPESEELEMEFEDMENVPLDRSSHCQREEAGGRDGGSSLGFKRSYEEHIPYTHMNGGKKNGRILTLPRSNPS
Method: NIH-3T3 cells overexpressing human IGF-1R or IR were plated in 96-well plates (10,000 cells/well) in culture media containing 10% fetal bovine serum and incubated at 37° C. in a 5% CO2 incubator. Twenty four hours post-plating, cells were treated with different concentrations of test compounds ranging from 30 uM to 1.5 nM. Two hours after compound addition, cells were stimulated with either human IGF-1 (30 ng/ml) or insulin (3 ug/ml) for 15 minutes. Cell lysates are analyzed for phosphorylated receptors using dissociation enhanced lanthanide fluor-immuno assay (DELFIA) with anti-IGF-1R (MAB391, R&D Systems, Minneapolis, Minn.) or anti-IRβ (sc-711, Santa Cruz Biotechnology, Santa Cruz, Calif.) capture antibody and europium-labeled anti-pTyr antibody (Eu-N1 PT66, Perkin Elmer, Waltham, Mass.) for detection. The fluorescence signal for cells treated with compounds was expressed as percent relative to 100% stimulation (IGF-1 or insulin stimulated signal).

human IGF1R (hIGF1R) = molecular target: T4, human IGF1R (hIGF1R) (Homo sapiens, UniProt P08069); test: TR-FRET kinase assay of purified hIGF1R; assay type: biochemical; conditions: activated hIGF1R 0.5 nM, 10 μM ATP, values given as pIC50 category, read-out: IGF-1R pIC50 (converted)
T4 construct: containing amino acid residues 957-1367 of human IGF1R; made in house; host or cells: Sf9 cells (baculovirus)
T4 sequence (P08069 957-1367): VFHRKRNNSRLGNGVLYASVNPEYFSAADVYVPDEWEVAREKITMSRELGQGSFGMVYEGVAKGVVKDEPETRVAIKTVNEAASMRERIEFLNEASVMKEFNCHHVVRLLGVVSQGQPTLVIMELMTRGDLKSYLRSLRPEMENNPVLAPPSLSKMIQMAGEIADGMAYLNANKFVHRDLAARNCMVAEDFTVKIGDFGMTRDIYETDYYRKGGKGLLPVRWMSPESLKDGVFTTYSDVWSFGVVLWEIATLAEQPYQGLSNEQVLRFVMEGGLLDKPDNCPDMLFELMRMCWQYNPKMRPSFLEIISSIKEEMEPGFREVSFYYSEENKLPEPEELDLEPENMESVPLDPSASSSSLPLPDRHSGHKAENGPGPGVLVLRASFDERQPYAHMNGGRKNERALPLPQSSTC

Colo205 = test: Inhibition of cell proliferation (CellTiter-Glo or InCell analyzer), Colo205; assay type: cell-based; conditions: Homo sapiens, COLO 205, 72 h / 3 days, values given as IC50 category
Method: Cell proliferation was measured by either CellTiter-Glo (measures cellular ATP level as a surrogate for total cell number) or by InCell analyzer (counts number of nuclei as a measure of cell number).
For CellTiter-Glo assay, exponentially growing cell lines of different tumor origins, cultured in appropriate media containing 10% fetal bovine serum at 37° C. in a 5% CO2 incubator, were plated at low density (less than 2000cells/well) in 96-well plates. Twenty four hours post-plating, cells were treated with different concentrations of test compounds ranging from 30 uM to 1.5 nM. Several wells were left untreated as a control. Seventy two hours post-treatment, cell numbers were determined using 50-100 ul per well of CellTiter-Glo (Promega #G7573). Plates were incubated at 37° C. for 30 minutes and the chemiluminescent signal was read on the Victor V or Envison 2100 reader.
For InCell Analyser assay, various cell lines of different tumor origins were grown to 70-80% confluency in appropriate culture media containing 10% fetal bovine serum at 37° C. in a 5% CO2 incubator. On day −1, cells were seeded at 2 densities in 384-well plates and incubated at 37° C. overnight. Stock compound plates were prepared in advance which contained dimethyl sulfoxide (DMSO) alone and a 9-point half-log decreasing dose range of the compound in DMSO. The compound plates were stored at −80° C. and each plate was only thawed once and used. On day 0, the main assay plates received compound or DMSO via a sonic delivery system (ECHO). The highest final concentration of compound of the dose range in the culture plates was 10 uM. These plates were cultured at 37° C. for 3 days. […] On day 3, the compound treated plates were stained and fixed to measure proliferation, apoptosis, and mitotic index using an InCelL1000 analyser. A nuclear stain was used to identify cells in the wells. By counting the number of nuclei, the proliferation index of compound treated groups were calculated as a percentage relative to the DMSO control, which was set to 100%. The IC50 values were calculated using model 205 in ExcelFit.
IC50 (nM) values for compounds of select examples were categorized by relative inhibition of cell proliferation.

ALK, sequence (Q9UM73 19-1620): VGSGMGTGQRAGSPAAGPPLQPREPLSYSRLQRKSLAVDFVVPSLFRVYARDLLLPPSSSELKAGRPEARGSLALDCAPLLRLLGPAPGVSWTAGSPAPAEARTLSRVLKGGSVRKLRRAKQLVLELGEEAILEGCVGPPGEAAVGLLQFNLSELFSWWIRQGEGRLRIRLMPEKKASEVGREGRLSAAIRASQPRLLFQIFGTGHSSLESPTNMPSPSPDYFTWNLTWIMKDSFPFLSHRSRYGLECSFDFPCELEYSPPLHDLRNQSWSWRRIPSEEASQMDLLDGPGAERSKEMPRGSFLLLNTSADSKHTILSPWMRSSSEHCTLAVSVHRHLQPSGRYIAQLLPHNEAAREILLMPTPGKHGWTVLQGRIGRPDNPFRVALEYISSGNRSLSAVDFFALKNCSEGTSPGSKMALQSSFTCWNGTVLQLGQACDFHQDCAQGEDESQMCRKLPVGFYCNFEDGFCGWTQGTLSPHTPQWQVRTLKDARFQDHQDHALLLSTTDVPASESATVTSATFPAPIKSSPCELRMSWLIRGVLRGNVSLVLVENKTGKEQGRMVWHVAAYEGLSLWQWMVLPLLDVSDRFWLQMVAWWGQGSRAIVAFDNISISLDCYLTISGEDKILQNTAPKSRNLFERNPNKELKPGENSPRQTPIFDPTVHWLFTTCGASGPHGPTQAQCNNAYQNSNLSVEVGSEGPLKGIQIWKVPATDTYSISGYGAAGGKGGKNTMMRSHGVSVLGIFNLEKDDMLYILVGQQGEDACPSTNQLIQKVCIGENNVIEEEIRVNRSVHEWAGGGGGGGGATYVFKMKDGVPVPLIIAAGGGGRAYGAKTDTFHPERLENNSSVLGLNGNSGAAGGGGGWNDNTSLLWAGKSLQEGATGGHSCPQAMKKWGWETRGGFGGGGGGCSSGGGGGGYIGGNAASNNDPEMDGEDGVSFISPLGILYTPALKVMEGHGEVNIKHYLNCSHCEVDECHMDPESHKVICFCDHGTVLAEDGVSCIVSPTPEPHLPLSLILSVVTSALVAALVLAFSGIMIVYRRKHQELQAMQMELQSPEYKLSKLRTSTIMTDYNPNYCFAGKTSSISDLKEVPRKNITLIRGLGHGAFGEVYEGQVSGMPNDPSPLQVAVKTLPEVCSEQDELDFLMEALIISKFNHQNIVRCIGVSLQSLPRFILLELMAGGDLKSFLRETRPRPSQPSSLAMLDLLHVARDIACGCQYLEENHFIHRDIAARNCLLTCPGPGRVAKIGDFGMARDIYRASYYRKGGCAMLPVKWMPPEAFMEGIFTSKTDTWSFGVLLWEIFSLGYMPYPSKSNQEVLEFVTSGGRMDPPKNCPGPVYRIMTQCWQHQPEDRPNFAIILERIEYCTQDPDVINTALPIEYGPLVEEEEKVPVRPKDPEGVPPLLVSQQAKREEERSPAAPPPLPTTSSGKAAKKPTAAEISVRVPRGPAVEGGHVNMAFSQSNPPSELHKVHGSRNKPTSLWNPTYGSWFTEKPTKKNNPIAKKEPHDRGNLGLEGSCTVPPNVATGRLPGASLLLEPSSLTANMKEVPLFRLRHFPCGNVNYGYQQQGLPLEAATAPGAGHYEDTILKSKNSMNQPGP

Row | Structure (SMILES) | IC50 (ALK) [nM] | IC50 (human IR (hIR)) [nM] | IC50 [1] [nM] | IC50 [2] [nM] | IC50 (human IGF1R (hIGF1R)) [nM] | IC50 (Colo205) [nM]
1 | COc1cc(N2CCOCC2)ccc1Nc1nc(Nc2ccccc2C(N)=O)c2cc[nH]c2n1 [Example 12, 2-[(2-{[2-(methyloxy)-4-(4-morpholinyl)phenyl]amino}-1H-pyrrolo[2,3-d]pyrimidin-4-yl)amino]benzamide] | 0.251 to 1 | 0.251 to 1 | 100 to 500 | 100 to 500 | 1.26 to 3.98 | 
2 | CCCN1CCC=C(c2ccc(Nc3nc(Nc4cccc(F)c4C(N)=O)c4cc[nH]c4n3)c(OC)c2)C1 [Example 41, 2-fluoro-6-[(2-{[2-(methyloxy)-4-(1-propyl-1,2,5,6-tetrahydro-3-pyridinyl)phenyl]amino}-1H-pyrrolo[2,3-d]pyrimidin-4-yl)amino]benzamide] | 0.251 to 1 | 1.26 to 3.98 | 100 to 500 | 100 to 500 | 1.26 to 3.98 | 
3 | CCCN1CCC=C(c2ccc(Nc3nc(Nc4cc5ccccc5cc4C(N)=O)c4cc[nH]c4n3)c(OC)c2)C1 [Example 29, 3-[(2-{[2-(methyloxy)-4-(1-propyl-1,2,5,6-tetrahydro-3-pyridinyl)phenyl]amino}-1H-pyrrolo[2,3-d]pyrimidin-4-yl)amino]-2-naphthalenecarboxamide] | 1.26 to 3.98 | 1.26 to 3.98 | 100 to 500 | 100 to 500 | 1.26 to 3.98 | 
4 | CNC(=O)c1c(F)cccc1Nc1nc(Nc2cc(N(C)C(=O)CN(C)C)c(C)cc2OC)nc2[nH]ccc12 [Example 254, 2-[(2-{[5-[(N,N-dimethylglycyl)(methyl)amino]-4-methyl-2-(methyloxy)phenyl]amino}-1H-pyrrolo[2,3-d]pyrimidin-4-yl)amino]-6-fluoro-N-methylbenzamide] | 5.01 to 200 | 5.01 to 158 | > 500 | > 500 |  | 
5 | COc1cc2c(cc1Nc1nc(Nc3cccc(F)c3C(N)=O)c3c(C)c[nH]c3n1)N(C(=O)CN(C)C)CCC2 [Example 261, 2-[(2-{[1-(N,N-dimethylglycyl)-6-(methyloxy)-1,2,3,4-tetrahydro-7-quinolinyl]amino}-5-methyl-1H-pyrrolo[2,3-d]pyrimidin-4-yl)amino]-6-fluorobenzamide] |  | 0.251 to 1 | < 100 | < 100 | 0.251 to 1 | 
6 | CNC(=O)c1c(F)cccc1Nc1nc(Nc2cc3c(cc2OC)CCCN3C(=O)CN(C)C)nc2[nH]cc(C)c12 [Example 260, 2-[(2-{[1-(N,N-dimethylglycyl)-6-(methyloxy)-1,2,3,4-tetrahydro-7-quinolinyl]amino}-5-methyl-1H-pyrrolo[2,3-d]pyrimidin-4-yl)amino]-6-fluoro-N-methylbenzamide] |  | 0.251 to 1 | < 100 | < 100 | 0.251 to 1 | 
7 | CCCN1CCCC(c2ccc(Nc3nc(Nc4ccccc4C(=O)NC)c4cc[nH]c4n3)c(OC)c2)C1 (centres unmarked) [Example 24, N-methyl-2-[(2-{[2-(methyloxy)-4-(1-propyl-3-piperidinyl)phenyl]amino}-1H-pyrrolo[2,3-d]pyrimidin-4-yl)amino]benzamide] | 0.251 to 1 |  | 100 to 500 | 100 to 500 | 1.26 to 3.98 | 
8 | COc1cc(N2CCN(C(C)C)CC2)c(OC)cc1Nc1nc(Nc2cccc(F)c2C(N)=O)c2cc[nH]c2n1 [Example 47, 2-fluoro-6-[(2-{[4-[4-(1-methylethyl)-1-piperazinyl]-2,5-bis(methyloxy)phenyl]amino}-1H-pyrrolo[2,3-d]pyrimidin-4-yl)amino]benzamide] | 1.26 to 3.98 |  | < 100 |  | 1.26 to 3.98 | < 250

Continued, values first:

Row | IC50 (ALK) [nM] | IC50 (human IR (hIR)) [nM] | IC50 [1] [nM] | IC50 [2] [nM] | IC50 (human IGF1R (hIGF1R)) [nM] | IC50 (Colo205) [nM] | Structure (SMILES)
9 | 0.251 to 1 | 1.26 to 3.98 | 100 to 500 | > 500 | 1.26 to 3.98 |  | CCCN1CCC=C(c2ccc(Nc3nc(Nc4cc(Cl)ccc4C(N)=O)c4cc[nH]c4n3)c(OC)c2)C1 [Example 110, 4-chloro-2-[(2-{[2-(methyloxy)-4-(1-propyl-1,2,5,6-tetrahydro-3-pyridinyl)phenyl]amino}-1H-pyrrolo[2,3-d]pyrimidin-4-yl)amino]benzamide]
10 | 5.01 to 200 | 5.01 to 158 | 100 to 500 | 100 to 500 | 5.01 to 200 |  | COc1cc2c(cc1Nc1nc(Nc3cccc(F)c3C(N)=O)c3cc[nH]c3n1)N(C(=O)CN(C)C)[C@H](C)C2 [Example 248, 2-[(2-{[(2R)-1-(N,N-dimethylglycyl)-2-methyl-5-(methyloxy)-2,3-dihydro-1H-indol-6-yl]amino}-1H-pyrrolo[2,3-d]pyrimidin-4-yl)amino]-6-fluorobenzamide]
11 |  | 0.251 to 1 | 100 to 500 | < 100 | 0.251 to 1 |  | COc1cc(N2CCN(C(C)C)CC2)ccc1Nc1nc(Nc2cc(F)ccc2C(N)=O)c2cc[nH]c2n1 [Example 79, 4-fluoro-2-[(2-{[4-[4-(1-methylethyl)-1-piperazinyl]-2-(methyloxy)phenyl]amino}-1H-pyrrolo[2,3-d]pyrimidin-4-yl)amino]benzamide]
12 | 0.251 to 1 | 0.251 to 1 | 100 to 500 | 100 to 500 |  |  | COc1cc(C2=CCCN(C)C2)ccc1Nc1nc(Nc2ccc(F)cc2C(N)=O)c2cc[nH]c2n1 [Example 55, 5-fluoro-2-[(2-{[2-(methyloxy)-4-(1-methyl-1,2,5,6-tetrahydro-3-pyridinyl)phenyl]amino}-1H-pyrrolo[2,3-d]pyrimidin-4-yl)amino]benzamide]
13 | 1.26 to 3.98 |  | < 100 |  | 1.26 to 3.98 | 250 to 1000 | COc1ccc(OCCCN(C)C)cc1Nc1nc(Nc2ccc(F)cc2C(N)=O)c2cc[nH]c2n1 [Example 64, 2-[(2-{[5-{[3-(dimethylamino)propyl]oxy}-2-(methyloxy)phenyl]amino}-1H-pyrrolo[2,3-d]pyrimidin-4-yl)amino]-5-fluorobenzamide]
14 | 1.26 to 3.98 |  | 100 to 500 |  | 1.26 to 3.98 | 250 to 1000 | CCCN1CCC=C(c2ccc(Nc3nc(Nc4cc(F)ccc4C(=O)NCC(N)=O)c4cc[nH]c4n3)c(OC)c2)C1 [Example 67, N-(2-amino-2-oxoethyl)-4-fluoro-2-[(2-{[2-(methyloxy)-4-(1-propyl-1,2,5,6-tetrahydro-3-pyridinyl)phenyl]amino}-1H-pyrrolo[2,3-d]pyrimidin-4-yl)amino]benzamide]
15 | 5.01 to 200 | 0.251 to 1 |  | > 500 | 1.26 to 3.98 |  | Cc1ccc(NC(=O)CN(C)C)cc1Nc1nc(Nc2cc3ccccc3cc2C(N)=O)c2cc[nH]c2n1 [Example 30, 3-{[2-({5-[(N,N-dimethylglycyl)amino]-2-methylphenyl}amino)-1H-pyrrolo[2,3-d]pyrimidin-4-yl]amino}-2-naphthalenecarboxamide]
